Consider one substance from article PMC9016803, “Mitochondria-targeted half-sandwich iridium(III)-Cp*-arylimidazophenanthroline complexes as antiproliferative and bioimaging agents against triple negative breast cancer cells MDA-MB-468” (RSC Advances, 2022).

By Solubility is commonly meant the concentration that dissolves in the medium under given conditions. A lower Solubility goes with little dissolved substance.

One data set relates to MDA-MB-468 cells. The data set is described as follows: Cell cycle analysis. Type of data set: cell-based. To be noted: 5 μM. The method, then:
The IrL1 complex exerted a G0/G1 cell cycle arrest at the highest tested concentration of 5 μM. The effects of various concentrations of IrL1 complex on the cell cycle of breast cancer cell line MDA-MB-468 cells were further explored by cell cycle analysis.

The next data set concerns the target T1, BSA (Bos taurus, UniProt P02769).
T1 construct: purchased Sigma Aldrich Chemical Limited
Nature of the data set: BSA binding, tryptophan emission quenching. Also noted: species or system bovine. The method, then:
Upon excitation at 295 nm, the emission intensity of BSA at λem = 350 nm decreased gradually on increasing the complex concentration, which confirmed that the interaction between complex IrL1 with BSA had occurred, as observed in Fig. 8. The Stern–Volmer quenching constant of these complexes with BSA (KBSA) was calculated using the Stern–Volmer equation and the corresponding Stern–Volmer plots (Fig. 8, inset). The binding affinity (K) of the complexes was calculated from Scatchard plot analysis (Fig. 8, inset). […]
Kapp × [Complex]50 = kEtBr × [EtBr]⋯⋯⋯(iii) […]
Stern-Volmer equation was followed for quantitative determination of the Stern-Volmer quenching constant (K SV).5 Origin (8.5) software was used to plot the fluorescence data to obtain linear plot of I0/I vs. [complex]. The value of KSV was calculated from the following […]
Where I0 = fluorescence intensity in absence of complex and I = fluorescence intensities in presence of complex of concentration [Q].
We are acquainted with the fact that serum albumin proteins are the main component. […] After each addition, the solutions were shaken slowly for 5 min before recording the fluorescence at a wavelength of 295 nm (λex = 295 nm). A gradual decrease in fluorescence intensity of BSA at λ = 340 nm was observed upon increasing the concentration of complex, which confirmed […]
that the interaction between the complex and BSA was happened. Stern-Volmer equation was employed to quantitatively determine the quenching constant (K BSA). […]
Where I0 is the fluorescence intensity of BSA in absence of complex and I indicates the fluorescence intensity of BSA in presence of complex of concentration [Q], τ0 = lifetime of the tryptophan in BSA found as 1 x 10-8 and kq is the quenching constant. […]
To allow the phase separation, the solution was centrifuged for 10 min at 3000 rpm. […] Aliquots of the aqueous and octanol layers were pipetted out separately and the absorbances were measured with UV-Vis spectrophotometer using proper dilution. […]

A further data set is described as follows: Solubility study. Type of data set: physicochemical. To be noted: DMSO-10% DMEM medium (1 : 99 v/v, comparable to cell media). Here is the method:
Both hydrophilicity and lipophilicity studies were performed to determine the tumour-inhibiting potential of the metal complexes. These complexes were highly soluble in DMSO and moderately soluble in H2O, MeOH, EtOH and CH3CN. […] The lipophilicity of these complexes was determined by performing an n-octanol/water partition coefficient (log Po/w, where Po/w = the octanol/water partition coefficient) study using the shake flask method (Table 1).[24] The experimental log Po/w values of these complexes were determined to be in the range of 0.27–0.34 (Table 1). […] This change in the electrolytic behaviour of the complexes from 1 : 1 to 1 : 2 can be attributed to the dissociation of the Ir–Cl bond and subsequent aquation of the complexes.

T1 sequence (P02769 25-607): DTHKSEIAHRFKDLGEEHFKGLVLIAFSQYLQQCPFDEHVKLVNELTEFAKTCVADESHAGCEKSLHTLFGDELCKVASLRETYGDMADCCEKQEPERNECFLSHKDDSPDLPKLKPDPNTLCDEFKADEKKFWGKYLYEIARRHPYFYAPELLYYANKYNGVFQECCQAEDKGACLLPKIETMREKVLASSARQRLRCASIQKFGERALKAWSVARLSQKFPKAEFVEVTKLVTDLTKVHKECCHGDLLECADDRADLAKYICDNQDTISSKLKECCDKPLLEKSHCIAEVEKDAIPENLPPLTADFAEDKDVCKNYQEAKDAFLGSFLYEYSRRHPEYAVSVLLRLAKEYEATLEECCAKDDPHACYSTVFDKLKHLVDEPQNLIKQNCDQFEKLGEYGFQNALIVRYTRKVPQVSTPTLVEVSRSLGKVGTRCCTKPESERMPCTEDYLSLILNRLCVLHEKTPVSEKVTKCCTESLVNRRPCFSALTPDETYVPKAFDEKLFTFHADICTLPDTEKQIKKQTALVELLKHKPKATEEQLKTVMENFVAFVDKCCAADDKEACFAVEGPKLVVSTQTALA

In the data set on MDA-MB-468 cells, “[Iridium(III)-Cp*-2-(naphthalen-1-yl)-1H-imidazo[4,5-f][1,10]phenanthroline]PF6 [IrL1]” showed a G0/G1 phase cells of 53.32%, a G2/M phase cells of around 18.37% and a S phase cells of around 28.32%. Moreover, the “K, binding affinity (Scatchard plot)” value on BSA (BSA) turned out to be 6.3e+06 M⁻¹. Also, the “kq, bimolecular quenching constant” value on BSA (calculated from KSV and τ0 (1 × 10^−8 s)) was 5 × 10^12 M^−1 S^−1. The “KBSA, Stern–Volmer quenching constant with BSA” value at BSA (excitation 295 nm) was found to be 50000 M⁻¹. The Solubility in “Solubility study” was found to be 700 µM.
